The values that follow come from patent US20060074109A1, “Use of inhibitors of 24-hydroxylase in the treatment of cancer” (Sapphire Therapeutics, Inc., priority 2004, published 2006).

The subject of one test is OVCAR-3 cells. Kind of test: Cell growth assay, crystal violet, 11 days. Type of test: cell-based, human. The settings on record: for effect on growth inhibition: Experiment V. Here is the method:
(§1) The human ovarian adenocarcinoma cell line, OVCAR-3 (ATCC, Manassas, Va.) was maintained, as recommended by the supplier, in RPMI 1640 medium (Sigma Aldrich, St. Louis, Mo.) supplemented with 10% FBS, 10 μg/ml insulin, 0.25% glucose and antibiotics (100 IU/ml penicillin, 100 μg/ml streptomycin). Human ovarian adenocarcinoma cell lines UT-OC-1, UT-OC-2, UT-OC-3, UT-OC-4, UT-OC-5 (Grenman, S., Engblom, P., Rantanen, V., Klemi, P. and Isola, J., “Cytogenetic Characterization of Five New Ovarian Carcinoma Cell Lines,” Acta Obstet. Gynecol. Scand., 76:83 (1997)) and SK-OV-3 and a human keratinocyte cell line HaCaT were grown in DMEM (Sigma Aldrich) with 10% FBS and antibiotics (100 IU/ml penicillin, 100 μg/ml streptomycin), and monkey kidney COS cells were maintained in DMEM/F12 (Sigma Aldrich) with 5% FBS. All cell lines were kept at 37° C. in a humidified 95% air/5% CO2 incubator.
(§2) When OVCAR-3 cells were on the logarithmic growth phase (70% confluent) the growth assay was started. For cell growth assay, 2,000 cell/200 μl/well were plated on 96-well culture plates. […] Ethanol was used as a vehicle, and it was also included in the control. The medium containing ethanol vehicle and/or hormones were changed to a fresh one every third day. Cell growth samples were taken 0, 1, 3, 5, 7, 9 and 11 days after the treatment.
(§3) Relative cell numbers were quantified as described previously (Kueng W, Silber E, Eppenberger U. Quantification of cells cultured on 96-well plates. Anal. Biochem., 182:16-9 (1989)). Cells were fixed on the bottom of the wells by addition of 10 μl of 11% glutaraldehyde solution in 0.1% phosphate buffer to 100 μl of medium. The plate was shaken 500 cycles/min for 15 min, washed 3 times by submersion in de-ionised water and air-dried. Fixed cells were stained with 0.1% solution of crystal violet dissolved in de-ionised water. After 20 min incubation, excess dye was removed by carefully washing with de-ionised water. The plate was air-dried prior to a bound dye solubilisation in 100 μl of 10% acetic acid. Relative cell number was given as absorbance units by measuring the optical density (590 nm) from each well using Victor 1420 multilabel counter (Wallac, Turku, Finland). Six determinations were used to calculate the mean optical density ±SD in each concentration at each time point. The absorbance value of day 0 (an overnight culture of 2,000 cells/well) was set as 0 by subtracting it from each value obtained from adjacent time-point measurements (days 1-11), and based on these values growth curves were created. Experiments were repeated 3-5 times. Day 11 was used to compare the effect of hormone treatments and 24OHase inhibitor. Statistical analyses were done using Student's t-test.
The cell growth response was determined as described in Experiment I. Briefly, cells were treated with indicated hormone concentrations or combinations of hormone and 24OHase inhibitor (VID400) for 11 days. The growth medium and hormones were changed to a fresh one every third day. After the treatment period, cells were fixed, stained with crystal violet, and the optical density (590 nm) was determined. The cell growth is presented as a percentage of ethanol-treated cells. The values represent the mean of 3 separate experiments ±SD. (*p<0.05, **p<0.001, ***p<0.0001, Student's t-test).
(§4) Cell growth samples were obtained after 11 days treatment.

Test [1] relates to 24OHase mRNA in OVCAR-3 cells. Nature of the test: Quantitative RT-PCR of 24OHase mRNA. Type of test: cell-based, human. The settings on record: 100 nM. As for the experimental part: Ethanol was used as a vehicle, and it was also added to the control cells. For RNA extraction, the cells were collected 4, 6 and 24 hr after the treatment with vitamin D compound or vehicle. RNA extractions were done with TRIZOL reagent (GIBCO Invitrogen Corporation, Paisley, UK). The integrity of RNA samples was confirmed on gel electrophoresis. […] The reactions for 24-hydroxylase were performed in the LightCycler instrument (Roche Diagnostics, Basel, Switzerland) from 300 ng total RNA. PBGD (human porphobilinogendeaminase) mRNA was used as an […] control. […] Nucleotides, Tth DNA polymerase (DNA polymerase and reverse transcriptase activity), SYBR Green I and reaction buffer were included in the LightCycler-RNA Master SYBR Green I kit (Roche Diagnostics). […] Cell. […] Detection of fluorescent product was performed at the end of the extension step of each cycle. To verify the specific products, melting curve analysis and gel electrophoresis were done. The data were quantified by the Fit Points method with LightCycler Data Analysis software. […] Hormone treatments and RT-PCR were done twice.

In test [2] the test system is ovarian cancer cell lines. Kind of test: Cell growth assay, crystal violet, 11 days, all cell lines. Type of test: cell-based, human. To be noted: 200 nM VID 400 alone. Here is the method:
The human ovarian adenocarcinoma cell line, OVCAR-3 (ATCC, Manassas, Va.) was maintained, as recommended by the supplier, in RPMI 1640 medium (Sigma Aldrich, St. Louis, Mo.) supplemented with 10% FBS, 10 μg/ml insulin, 0.25% glucose and antibiotics (100 IU/ml penicillin, 100 μg/ml streptomycin). Human ovarian adenocarcinoma cell lines UT-OC-1, UT-OC-2, UT-OC-3, UT-OC-4, UT-OC-5 (Grenman, S., Engblom, P., Rantanen, V., Klemi, P. and Isola, J., “Cytogenetic Characterization of Five New Ovarian Carcinoma Cell Lines,” Acta Obstet. Gynecol. Scand., 76:83 (1997)) and SK-OV-3 and a human keratinocyte cell line HaCaT were grown in DMEM (Sigma Aldrich) with 10% FBS and antibiotics (100 IU/ml penicillin, 100 μg/ml streptomycin), and monkey kidney COS cells were maintained in DMEM/F12 (Sigma Aldrich) with 5% FBS. […]
Relative cell numbers were quantified as described previously (Kueng W, Silber E, Eppenberger U. Quantification of cells cultured on 96-well plates. Anal. Biochem., 182:16-9 (1989)). […] Relative cell number was given as absorbance units by measuring the optical density (590 nm) from each well using Victor 1420 multilabel counter (Wallac, Turku, Finland). […] The absorbance value of day 0 (an overnight culture of 2,000 cells/well) was set as 0 by subtracting it from each value obtained from adjacent time-point measurements (days 1-11), and based on these values growth curves were created. […]

For test [3], the system named is DU145 prostate cancer cells. Nature of the test: Cell growth, methylene blue uptake (Experiment VI). To be noted: VID400+calcitriol. Type of test: cell-based. As for the experimental part:
(§5) Culture conditions were the same as for Experiment I. Cell growth was measured using uptake of methylene blue (0.5% in 50% ethanol), followed by air drying and release of the dye in 1% sodium N-lauroyl sarcosine in PBS.

Test [4] concerns CWR22Rv-1 prostate cancer cells. Kind of test: Cell growth, methylene blue uptake (Experiment VI). Type of test: cell-based. The settings on record: VID400+calcitriol. As for the experimental part: as §5
Test [5] concerns PC3 prostate cancer cells. Nature of the test: Cell growth, methylene blue uptake (Experiment VI). To be noted: VID400+calcitriol. Type of test: cell-based. Here is the method:
as §5

The next test relates to UT-OC-1 cells. Nature of the test: Cell growth assay, crystal violet, 11 days. Type of test: cell-based, human. Here is the method: as §1, §2, §3, §4
In a further test the test system is UT-OC-4 cells. Nature of the test: Cell growth assay, crystal violet, 11 days. Type of test: cell-based, human. Here is the method: as §1, §2, §3, §4
The next test concerns UT-OC-3 cells. Kind of test: Cell growth assay, crystal violet, 11 days. The settings on record: 200 nM VID 400 combined with vitamin D or retinoid compounds. Type of test: cell-based, human. Here is the method: as §1, §2, §3, §4
A further test has as its system UT-OC-5 cells. Kind of test: Cell growth assay, crystal violet, 11 days. Type of test: cell-based, human. To be noted: 200 nM VID 400 combined with hormones, especially 1,25(OH)2D3 or EB 1089, 11 days. As for the experimental part:
as §1, §2, §3, §4

The subject of a further test is SK-OV-3 cells. Nature of the test: Cell growth assay, crystal violet, 11 days. Type of test: cell-based, human. As for the experimental part: as §1, §2, §3, §4
The next test deals with UT-OC-2 cells. Kind of test: Cell growth assay, crystal violet, 11 days. Type of test: cell-based, human. The settings on record: 200 nM VID 400 combined with vitamin D or retinoid compounds. As for the experimental part:
as §1, §2, §3, §4

Each structure is given as a SMILES string.

As for `C=C1CC[C@H](O)C/C1=C/C=C1\CCC[C@]2(C)[C@@H]([C@H](C)CCCC(C)(C)O)CC[C@@H]12` [25(OH)D3, monohydroxyvitamin D3], the “stimulated growth compared to the control” value in the test with OVCAR-3 cells (10 nM, 11 days) worked out at 32%; in the test on OVCAR-3 cells (50 nM, 11 days), 41%; with OVCAR-3 cells (100 nM alone, 11 days, Experiment IV, not statistically significant), 18%; with OVCAR-3 cells (100 nM, 11 days, Experiment I), 39%; with OVCAR-3 cells (200 nM, 11 days) it was 35%; in the test with OVCAR-3 cells (500 nM, 11 days), 11%. Besides, the “induction of 24OHase mRNA expression” value in [1] (6 hr treatment) was determined as 3 fold; in test [1] (24 hr treatment), 0.5 fold.
For the molecule `O=C(NC[C@@H](c1ccccc1)n1ccnc1)c1ccc(-c2ccc(Cl)cc2)cc1` [VID400, 2-(R)-4′-Chlorobiphenyl-4-carboxylic acid (2-imidazol-1-yl-2-phenyl-ethyl)-amide], the “growth inhibition compared to the control” value in the test with OVCAR-3 cells (200 nM VID400 alone, 11 days, Experiment IV) stood at 8%; in the test on OVCAR-3 cells (200 nM VID400 combined with 1 nM 1,25(OH)2D3, 11 days) it was 27%; with OVCAR-3 cells (200 nM VID400 combined with 10 nM 1,25(OH)2D3, 11 days), 77%; with OVCAR-3 cells (200 nM VID400 combined with 100 nM 25(OH)D3, 11 days), 14%. The “effect on growth inhibition” value was “clearly enhanced the growth inhibition” in the test on OVCAR-3 cells (200 nM VID 400 combined with 10 nM 1,25(OH)2D3, 11 days); “had no additional effect on cell growth inhibition” in the test on OVCAR-3 cells (200 nM VID 400 combined with EB 1089, 11 days); “slightly augmented the growth inhibition” with OVCAR-3 cells (200 nM VID 400 combined with retinoids, 11 days); “augmented the growth inhibition” with UT-OC-1 cells (200 nM VID 400 combined with 10 μM 9-CRA, 11 days); “potentiated this effect” in the test on UT-OC-4 cells (200 nM VID 400 combined with 10 μM ATRA or 9-CRA, 11 days); “potentiated this effect” with SK-OV-3 cells (200 nM VID 400 combined with 9-CRA). The “effect on cell growth” value in [2] is recorded as “varied from slight stimulation to growth inhibition”; in test [3], “synergistic inhibition of growth”; in test [4] it was “synergistic inhibition of growth”; in [5], “synergistic inhibition of growth”; with UT-OC-4 cells (200 nM VID 400 combined with 100 nM 1,25(OH)2D3 or EB 1089, 11 days), “cell growth was inhibited”; in the test on UT-OC-3 cells it was “growth inhibition was seen”. For the same molecule, the “effect on cell growth” value is recorded as “had an inhibitory effect on growth” in the test with UT-OC-5 cells, “slightly inhibitory effect on growth” in the test with SK-OV-3 cells (200 nM VID 400 combined with vitamin D compounds) and “growth inhibition was seen” with UT-OC-2 cells. Besides, the “inhibition of cell growth” value in the test with UT-OC-1 cells (200 nM VID 400 combined with 100 nM EB 1089, 11 days) is on record as “did so”. In addition, in the test on UT-OC-1 cells (200 nM VID 400 combined with 10 μM ATRA, 11 days), the “augmentation of growth inhibition” value is recorded as “not seen”.
